Results: patent US5240957A, “Oxysalicylamido derivatives” (Astra Lakemedel Akteibolag, priority 1984, dated 1993)

Experiments:
dopamine receptors = target: T1, dopamine receptors (Rattus norvegicus, UniProt P61169); assay: Receptor binding assay: in vitro block of 3H-spiperone binding, rat striatal membranes; parameters: species or system Male Sprague-Dawley rats; details: rat striatum; 3H-spiperone 0.4 nM; 10 minutes at 37° C.
T1 construct: The striata were dissected, pooled and homogenized in 50 mM Tris-HCl buffer (pH 7.6); from tissue; host or cells: striata of male Sprague-Dawley rats, membrane fraction
T1 sequence (P61169 whole entry): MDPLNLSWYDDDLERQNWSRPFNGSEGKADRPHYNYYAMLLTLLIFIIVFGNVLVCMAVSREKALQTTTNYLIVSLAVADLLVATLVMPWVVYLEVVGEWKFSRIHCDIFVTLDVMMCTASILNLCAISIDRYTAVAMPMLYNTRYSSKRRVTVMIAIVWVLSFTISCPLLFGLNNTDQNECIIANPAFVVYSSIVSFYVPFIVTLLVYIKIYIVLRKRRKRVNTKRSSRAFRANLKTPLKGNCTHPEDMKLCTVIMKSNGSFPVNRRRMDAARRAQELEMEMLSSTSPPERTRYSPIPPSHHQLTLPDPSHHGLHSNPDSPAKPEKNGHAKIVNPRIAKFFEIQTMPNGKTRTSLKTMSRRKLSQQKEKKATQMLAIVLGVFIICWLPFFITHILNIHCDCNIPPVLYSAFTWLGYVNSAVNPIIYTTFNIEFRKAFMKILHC
Experimental: The assays have been carried out using a cell harvester equipment. The incubations were made in quadruplicate, each well containing membrane suspension (2.5 mg/0.5 ml), ^3 H-spiperone (0.4 nM) and the test compound in a final volume of 0.5 ml. After incubation for 10 minutes at 37° C., the contents of the wells were rapidly filtered and washed on Whatman GF/B filters using the Cell harvester. The specific binding was defined as the difference of ligand bound in the […] of 1 μM (+)-butaclamol. The test results are expressed as IC50.

apomorphine syndrome = details: claimed in prior art; cited from earlier work
[1] = test system: DA receptors linked to the nigro neostriatal DA system (apomorphine stereotypies); assay: Reduction of apomorphine-induced stereotypies in the rat; assay type: in vivo, Male Sprague-Dawley rats; details: i.p.; 60 min prior to apomorphine hydrochloride 1 mg/kg s.c.; 60 min observation
From the text: (§1) There are presently several techniques available to study DA receptor blockage in the brain in vivo. One method is based on the ability of antipsychotic drugs to block the behavioral effects induced by the DA agonist apomorphine in the rat. Several studies indicate an excellent correlation between the in vivo DA receptor blockage as measured in the apomorphine test and therapeutic efficacy of different antipsychotic drugs. Apomorphine produces in rats and other species a characteristic syndrome consisting of repetitive movements (stereotypies) and hyperactivity which appear to be due to activation of postsynaptic DA receptors in the brain (J. Pharm. Pharmacol. 19, 627, 1967; J. Neurol. transm. 40, 97-113, 1977). […]
Directly after injection, the animals were placed in the cages, one in each cage. […] The strength of the stereotype was scored on a 0-3 scale as follows:
(§2) In the second system the number of animals displaying hyperactivity caused by apomorphine were scored. […] The ED50 were calculated from log dose-response curves by the method of least squares from 4-6 dose levels with 6-8 animals per dose level.

[2] = test system: DA receptors in subcortical mesolimbic structures (apomorphine hyperactivity); assay: Reduction of apomorphine-induced hyperactivity in the rat; assay type: in vivo, Male Sprague-Dawley rats; details: i.p.; 60 min prior to apomorphine hydrochloride 1 mg/kg s.c.; 60 min observation
From the text: as §1, with “1977). The stereotypies (chewing, licking, biting) appear mainly to be induced via activation of DA receptors linked to the nigro neostriatal DA system (J. Psychiat. Res., 11, 1, 1974) whereas the increased locomotion (hyperactivity) mainly appears to be due to activation of DA receptors in subcortical mesolimbic structures (nucleus olfactorium, nucleus accumbens) i.e. the mesolimbic DA system. (J. Pharm. Pharmacol. 25, 1003, 1973).” for “1977).”
as §2

Structure (SMILES)	IC50 (dopamine receptors)	also measured
COc1cc(Br)c(O)c(C(=O)NC[C@H]2CCCN2Cc2ccc(F)cc2)c1OC	1.3 nM	
CCN1CCC[C@H]1CNC(=O)c1c(OC)ccc(Br)c1OC [Remoxipride]		antagonism/inhibition of the apomorphine syndrome in the rat (apomorphine syndrome): potent antagonist
CCc1cc(OC)c(OC)c(C(=O)NC[C@@H]2CCCN2CC)c1O	1.3 nM	
CCN1CCCC1CNC(=O)c1c(O)c(Cl)cc(Cl)c1OC (centres unmarked)		antagonism/inhibition of the apomorphine syndrome in the rat (apomorphine syndrome): potent inhibitors
CCN1CCC[C@H]1CNC(=O)c1c(O)c(Cl)cc(Cl)c1OC		Reduction of stereotypies ED50 [1]: 2.4 µmol/kg; Reduction of hyperactivity ED50 [2]: 0.11 µmol/kg
C=CCN1CCC[C@H]1CNC(=O)c1c(O)c(Br)cc(OC)c1OC	2.3 nM	
CCCc1cc(OC)c(OC)c(C(=O)NC[C@@H]2CCCN2CC)c1O	2.4 nM	

More lines, main results first:

IC50 (dopamine receptors)	Structure (SMILES)	also measured
0.3 nM	CCN1CCC[C@H]1CNC(=O)c1c(O)c(Cl)cc(OC)c1OC	
1.4 nM	CCN1CCC[C@H]1CNC(=O)c1c(O)c(Br)cc(OC)c1OC	
8.8 nM	CCN1CCC[C@H]1CNC(=O)c1c(O)ccc(OC)c1OC	
